According to ChEMBL document CHEMBL1914281, “Discovery of novel pyridyl carboxamides as potent CCR5 antagonists and optimization of their pharmacokinetic profile in rats” (Bioorg Med Chem Lett, 2011):

Assays:
[1] = Half life in Sprague-Dawley rat plasma at 1 mg/kg; format: ADME, organism-based; design: dose 1 mg/kg
[2] = Metabolic stability of the compound in Sprague-Dawley rat plasma assessed as compound remaining at 1 mg/kg after 5 mins; format: ADME, organism-based; design: dose 1 mg/kg; details: read-out: Stability
Plasma [3] = test: (§1) Metabolic stability of the compound in Sprague-Dawley rat plasma assessed as compound remaining at 1 mg/kg after 60 mins; format: ADME, organism-based; design: dose 1 mg/kg; details: in vivo, 1 h
[4] = Metabolic stability of the compound in Sprague-Dawley rat plasma assessed as compound remaining at 1 mg/kg after 20 mins; format: ADME, organism-based; design: dose 1 mg/kg; details: read-out: Stability
[5] = Oral bioavailability in Sprague-Dawley rat plasma at 1 mg/kg; format: ADME, organism-based
[6] = Clearance in Sprague-Dawley rat plasma at 1 mg/kg; format: ADME, organism-based; design: dose 1 mg/kg
[7] = system: Human immunodeficiency virus 1; test: Antiviral activity against Human immunodeficiency virus 1 Ba-L in human PBL cells assessed as inhibition of viral replication; format: functional, organism-based
[8] = Metabolic stability of the compound in Sprague-Dawley rat plasma assessed as compound remaining at 1 mg/kg after 10 mins; format: ADME, organism-based; design: dose 1 mg/kg; details: read-out: Stability
[9] = system: Human immunodeficiency virus 1; test: Antiviral activity against Human immunodeficiency virus 1 Ba-L by in human HOS cells assessed as inhibition of viarl entry by luciferase reporter gene assay; format: functional, organism-based
[10] = Metabolic stability of the compound in Sprague-Dawley rat plasma assessed as compound remaining at 1 mg/kg after 30 mins; format: ADME, organism-based; design: dose 1 mg/kg; details: read-out: Stability
Plasma [11] = test: (§2) Metabolic stability of the compound in Sprague-Dawley rat plasma assessed as compound remaining at 1 mg/kg after 45 mins; format: ADME, organism-based; design: dose 1 mg/kg; details: in vivo, 0.75 h
[12] = as §1; format: ADME, organism-based; design: dose 1 mg/kg; details: Sprague-Dawley, plasma, read-out: Stability
Plasma [13] = test: Stability of the compound in Sprague-Dawley rat plasma; format: ADME, cell-free
[14] = as §2; format: ADME, organism-based; design: dose 1 mg/kg; details: Sprague-Dawley, plasma, read-out: Stability
HOS = test: Cytotoxicity in human HOS cells assessed as cell death up to 1 uM; format: cell-based
PBL = test: Cytotoxicity in human PBL cells assessed as cell death up to 1 uM; format: cell-based

SMILES | remaining at 5 min [2] [%] | remaining at 20 min [4] [%] | IC50 [7] [nM] | remaining at 10 min [8] [%] | IC50 [9] [nM] | remaining at 0.5 h [10] [%] | Activity (HOS) | Activity (PBL) | also measured
Cc1cc(NC(=O)N(c2cccc(F)c2)C2CCN(Cc3ccc(Oc4ccc(NS(C)(=O)=O)cc4)nc3C)CC2)cnc1C(N)=O | 90 | 94 | 5.3 | 88 | 1.9 | 120 | – | – | half-life [1]: 2 h; Stability (Plasma [3]): 134%; bioavailability [5]: 30%; clearance [6]: 37 mL/min/kg; Stability (Plasma [11]): 123%
Cc1nc(Oc2ccc(NS(C)(=O)=O)cc2)ccc1CN1CCC(N(C(=O)Nc2cnc(C(N)=O)c(F)c2)c2cccc(F)c2)CC1 | 86 | 42 | 1.1 | 71 | 1.2 | 26 | – | – | remaining at 1 h [12]: 4%; Stability (Plasma [13]): Unstable; remaining at 0.75 h [14]: 12%
Cc1nc(Oc2ccc(NS(C)(=O)=O)cc2)ccc1CN1CCC(N(C(=O)Nc2ccc(C(N)=O)nc2)c2cccc(F)c2)CC1 | 85 | 44 | 0.8 | 67 | 1 | 25 | Non-toxic | Non-toxic | remaining at 1 h [12]: 3%; remaining at 0.75 h [14]: 11%
CS(=O)(=O)Nc1ccc(Oc2ccc(CN3CCC(N(C(=O)Nc4ccc(C#N)nc4)c4ccccc4)CC3)cn2)cc1 | – | – | – | – | 44 | – | – | – | –
Cc1nc(Oc2ccc(NS(C)(=O)=O)cc2F)ccc1CN1CCC(N(C(=O)Nc2ccc(C(N)=O)nc2)c2cccc(F)c2)CC1 | – | – | 0.5 | – | 1.2 | – | Non-toxic | Non-toxic | –
CS(=O)(=O)Nc1ccc(Oc2ccc(CN3CCC(N(C(=O)Nc4ccc(C(N)=O)nc4)c4ccccc4)CC3)c(C3CC3)n2)cc1 | – | – | 2.2 | – | 1 | – | Non-toxic | Non-toxic | –
Cc1cc(NS(C)(=O)=O)ccc1Oc1ccc(CN2CCC(N(C(=O)Nc3ccc(C(N)=O)nc3)c3cccc(F)c3)CC2)c(C)n1 | – | – | 0.6 | – | 1 | – | Non-toxic | Non-toxic | –
CS(=O)(=O)Nc1ccc(Oc2ccc(CN3CCC(N(C(=O)Nc4ccc(C(N)=O)nc4)c4ccccc4)CC3)cn2)cc1 | – | – | – | – | 10 | – | – | – | –
Cc1nc(Oc2ccc(NS(C)(=O)=O)cc2)ncc1CN1CCC(N(C(=O)Nc2ccc(C(N)=O)nc2)c2cccc(F)c2)CC1 | – | – | 0.9 | – | 2.4 | – | Non-toxic | Non-toxic | –
Cc1nc(Oc2ccc(NS(C)(=O)=O)cc2Cl)ccc1CN1CCC(N(C(=O)Nc2ccc(C(N)=O)nc2)c2cccc(F)c2)CC1 | – | – | 1.1 | – | 1.2 | – | Non-toxic | Non-toxic | –
Cc1nc(Oc2ccc(NS(C)(=O)=O)cc2)ccc1CN1CCC(N(C(=O)Nc2ccc(C(N)=O)nc2C)c2cccc(F)c2)CC1 | 94 | 95 | 3.9 | 91 | 3.6 | 84 | – | – | half-life [1]: 2.8 h; remaining at 1 h [12]: 71%; bioavailability [5]: 49%; clearance [6]: 11.7 mL/min/kg; remaining at 0.75 h [14]: 74%
Cc1nc(Oc2ccc(NS(C)(=O)=O)cc2)ccc1CN1CCC(N(C(=O)Nc2cc(F)c(C(N)=O)cc2F)c2cccc(F)c2)CC1 | – | – | – | – | – | – | – | – | half-life [1]: 3.9 h; bioavailability [5]: 53%; clearance [6]: 15 mL/min/kg
